Reference: US8895717B2, “Delivery of siRNA by neutral lipid compositions” (The Board of Regents of the University of Texas System, priority 2005, dated 2014)
d = 2'-deoxy (DNA); r = 2'-OH (RNA)

Key:
HeyA8-MDR cells = experiment: In vivo therapy with DOPC-FAK siRNA, HeyA8-MDR model; parameters: species or system nude mice; conditions: for Incidence (%) / No. Nodules: siRNA in DOPC twice weekly, docetaxel 50 μg weekly
Protocol: siRNA for in vivo delivery was incorporated into the phospholipid 1,2-dioleoyl-sn-glycero-3-phosphatidylcholine (DOPC). DOPC and siRNA were mixed in the presence of excess tertiary-butanol at a ratio of […], as previously described (Landen et al., 2005). Tween-20 was added to the mixture at a ratio of 1:19. The mixture was vortexed, frozen in an acetone/dry ice bath, and lyophilized. Before in vivo administration, this preparation was hydrated with normal (0.9%) saline at a concentration of 15 μg/ml to achieve the desired dose of 150-200 μl per injection. To estimate the quantity of siRNA not taken up by liposomes free siRNA was separated from liposomes by using filter units with a 30,000 nominal molecular weight limit (Millipore Corp, Billerica, Mass.). The liposomal suspension was added to the filters and centrifuged at 5,000 g for 40 min at room temperature. Fractions were collected, the material trapped in the filter was reconstituted with 0.9% saline, and the amount of siRNA in the collected fraction and eluent were measured by spectrophotometry.
To produce tumors, SKOV3ip1, Hey A8-MDR cells (1×10^6 cells/0.2 ml of HBSS) and Hey A8 cells (2.5×10^5 cells/0.2 ml of HBSS) were injected interperitoneally (i.p.) into the mice. For in vivo injections, cells were trypsinized and centrifuged at 1000 rpm for 7 minutes at 4° C., washed twice with PBS and reconstituted in serum-free Hank's balanced salt solution (HBSS, Life Technologies, Carlsbad, Calif.). Only single-cell suspensions with >95% viability, as determined by trypan blue exclusion, were used for the in vivo injections. Mice (n=10 per group) were monitored for adverse effects of therapy and were sacrificed on day 35 (SKOV3ip1) or day 28 (HeyA8 or HeyA8-MDR) or when any of the mice began to appear moribund. Mouse weight, tumor weight, and tumor distribution were recorded. Tissue specimens were snap frozen for lysate preparation, fixed in formalin for paraffin embedding or frozen on OCT compound (Miles, Inc., Elkhart, Ind.) for frozen slide preparation.
Based on the results of preliminary dose-response studies, a series of three separate therapy studies were initiated using the optimal FAK siRNA dosage. Tumor cells were injected i.p. and 7 days later, the mice were randomly assigned to five treatment groups: empty liposome twice weekly, non-specific control […] siRNA (3 μg) twice weekly, control FAK siRNA (3 μg) twice weekly in combination with 50 μg docetaxel weekly, FAK siRNA twice weekly and FAK siRNA (3 μg) twice weekly in addition to 50 μg docetaxel weekly.
Chemotherapy-resistance is a common clinical problem in the management of ovarian carcinoma. Despite high response rates with initial therapy, most patients develop recurrent tumors that are resistant to taxane and platinum chemotherapy (McGuire et al., 1996). […] Consequently FAK downregulation and its effects on sensitization of resistant tumors to chemotherapy, using the HeyA8-MDR cell line (FIG. 13C) was assessed. Therapy was started 7 days after injection of tumor cells into nude mice according to the 5 groups outlined above.

HeyA8 orthotopic model = experiment: Angiogenesis (MVD), proliferation (PCNA), apoptosis (TUNEL), VEGF and MMP-9 in harvested tumors; assay type: in vivo, nude mice; conditions: for endothelial cell apoptosis: CD31 and TUNEL dual localization
Protocol: Expression of PCNA was determined by IHC analysis using paraffin-embedded tumors. Sections (8-μm thick) were deparaffinized in xylene, treated with a graded series of alcohol [100%, 95%, 80% ethanol/double distilled H2O (v/v)], and rehydrated in PBS (pH 7.5). Antigen retrieval was performed by microwave heating for 5 minutes in 0.1 M citrate buffer pH 6.0, followed by blocking of endogenous […] with 3% H2O2 in methanol for 5 min. After PBS wash ×2, slides were blocked with 5% normal horse serum and 1% normal goat serum in PBS for 15 min at room temperature, followed by incubation with primary antibody (anti-PCNA, PC-10, mouse IgG, Dako), in blocking solution overnight at 4° C. After two PBS washes, the appropriate secondary antibody conjugated to horseradish peroxidase, in blocking solution, was added for 1 hour at room temperature. HRP was detected with DAB (Phoenix Biotechnologies, Huntsville, Ala.) substrate for 5 minutes, washed, and counterstained with Gil No. 3 hematoxylin (Sigma) for 20 sec. IHC for CD31 was performed on freshly cut frozen tissue. […] The primary antibody used was anti-CD31 (PECAM-1, rat IgG, Pharmingen). Staining for PCNA and CD31 was conducted on tumors collected at the conclusion of 4 week therapy trials.
To quantify MVD, 10 random 0.159-mm^2 fields at ×100 final magnification were examined for each tumor (1 slide per mouse, 5 slides per group), and the number of microvessels per field were counted. A single microvessel was defined as a discrete cluster or single cell stained positive for CD31 (CD31), and the presence of a lumen was required for scoring as a microvessel. To quantify PCNA expression, the number of positive cells (DAB staining) was counted in 10 random 0.159-mm^2 fields at ×100 magnification. To quantify TUNEL positive cells, the number of green fluorescence positive cells was counted in 10 random 0.01-mm^2 fields at ×400 magnification.
Expression of PCNA was determined by IHC analysis using paraffin-embedded tumors. Sections (8-μm thick) were mounted on positively charged Superfrost slides (Fisher Scientific Co., Houston, Tex.) and dried overnight. Sections were deparaffinized in xylene, treated with a graded series of alcohol [100%, 95%, 80% ethanol/double distilled H2O (v/v)], and rehydrated in PBS (pH 7.5). Antigen was retrieved by placing the slides in water and then boiling them in a microwave on high power for 5 min. Expression of CD31 was determined using fresh frozen tissues that were cut into 4-μm thick sections and mounted on positively charged slides. The slides were stored at −80° C.; sections were fixed in cold acetone for 10 min. and then washed twice with PBS for 3 min each time. A positive reaction was visualized by incubating the slides with stable 3,3 diaminobenzidine for 10-20 min. The sections were rinsed with distilled water, counterstained with Gill's hematoxylin for 1 min and mounted with Universal mount (Research Genetics).
To determine potential mechanisms underlying the efficacy of anti-FAK based therapy, its effects on several biological endpoints were examined, including angiogenesis (MVD), proliferation (PCNA), and apoptosis (TUNEL). Due to growing evidence related to FAK and tumor angiogenesis (Kornberg et al., 2004; Mitra et al., 2005). The inventors evaluated vessel density (FIG. 14B) in the tumors harvested from the studies described above. […]

Substance | Incidence (%) (HeyA8-MDR cells) | No. Nodules (HeyA8-MDR cells) | endothelial cell apoptosis (HeyA8 orthotopic model) | reduction in tumor growth compared to control (HeyA8-MDR cells) | mean MVD compared with empty liposomes (HeyA8 orthotopic model; CD31 staining) | VEGF and MMP-9 expression (HeyA8 orthotopic model; IHC) | PCNA expression compared to empty liposome or control siRNA (HeyA8 orthotopic model; mouse, in vivo)
control siRNA: sense r(UUUUCCGAACGUGUCACGU)dTT, antisense r(ACGUGACACGUUCGGAGAA)dTT, no homology with human mRNA; in vivo in DOPC (sense UUUUCCGAACGUGUCACGUTT; antisense ACGUGACACGUUCGGAGAATT; sugars from the 5' end r19 d2, backbone not given here) | 90% | 4.4 | no apotosis seen in endothelial cells |  |  |  | 
FAK siRNA: sense r(CCACCUGGGCCAGUAUUAU)d(TT), antisense r(AUAAUACUGGCCCAGGUGG)d(TT); for in vivo delivery incorporated into DOPC (sense CCACCUGGGCCAGUAUUAUTT; antisense AUAAUACUGGCCCAGGUGGTT; sugars from the 5' end r19 d2, backbone not given here) | 70% | 2.1 | significantly increased | about 44% | mean MVD was reduced | substantially reduced | Minimal reduction of PCNA expression
